From US20110015067A1, “Herbicidal Compositions Comprising Pyroxasulfone” (BASF SE, priority 2008, published 2011)

Legend:
Assay type in all cases: in vivo
[1] = test system: ABUTH (Abutilon theophrasti); assay: pre-emergence greenhouse test; conditions: pre-emergence, 7.5 g ai/ha
From the text: (§1) For the pre-emergence treatment, directly after sowing the active compounds, which had been suspended or emulsified in water, were applied by means of finely distributed nozzles. The containers were irrigated gently to promote germination and growth and subsequently covered with transparent plastic hoods until plant had rooted. This cover caused uniform germination of the tests plants, unless this was adversely affected by active compounds.
(§2) The respective herbicides A and/or safener were formulated as 10% by weight strength suspension concentrate and introduced to the spray liquor with the amount of solvent system used for applying the active compound. Herbicide B and/or safener were used as commercially available formulations and introduced to the spray liquor with the amount of solvent system used for applying the active compound. In the examples, the solvent used was water.
(§3) The test period extended over 20 days. During this time, the plants were tended, and their response to the treatments with active compound was evaluated.
(§4) In the following experiments, the herbicidal activity for the individual herbicide compounds (solo application) and of the mixture was assessed 8 days after treatment (8 DAT) and/or 20 days after treatment (20 DAT).
(§5) The evaluation for the damage caused by the chemical compositions was carried out using a scale from 0 to 100%, compared to the untreated control plants. Here, 0 means no damage and 100 means complete destruction of the plants.

[2] = test system: ALOMY (Alopecurus myosuroides); assay: pre-emergence greenhouse test; conditions: for observed activity in % destruction: pre-emergence, 15 g ai/ha
From the text: as §1, §2, §3, §4, §5

[3] = test system: AMARE (Amaranthus retroflexus); assay: pre-emergence greenhouse test; conditions: pre-emergence
From the text: as §1, §2, §3, §4, §5

[4] = test system: BRAPL (Brachiaria plantaginea); assay: pre-emergence greenhouse test; conditions: for observed activity in % destruction: pre-emergence, 15 g ai/ha
From the text: as §1, §2, §3, §4, §5

[5] = test system: COMBE (Commelina benghalensis); assay: pre-emergence greenhouse test; conditions: for observed activity in % destruction: pre-emergence
From the text: as §1, §2, §3, §4, §5

[6] = test system: ECHCG (Echinochloa crus-galli); assay: pre-emergence greenhouse test; conditions: for observed activity in % destruction: pre-emergence
From the text: as §1, §2, §3, §4, §5

ERBVI = assay: pre-emergence greenhouse test; conditions: ERBVI pre-emergence 15 g ai/ha
From the text: as §1, §2, §3, §4, §5

[7] = test system: LOLMU (Lolium multiflorum); assay: pre-emergence greenhouse test; conditions: for observed activity in % destruction: pre-emergence
From the text: as §1, §2, §3, §4, §5

[8] = test system: PANDI (Panicum dichotomiflorum); assay: pre-emergence greenhouse test; conditions: pre-emergence
From the text: as §1, §2, §3, §4, §5

PHBPU (Ipomoea purpurea) = assay: pre-emergence greenhouse test; conditions: for observed activity in % destruction: pre-emergence, 3.75 g ai/ha
From the text: as §1, §2, §3, §4, §5

SETVI (Setaria viridis) = assay: pre-emergence greenhouse test
From the text: as §1, §2, §3, §4, §5

SOLNI (Solanum nigrum) = assay: pre-emergence greenhouse test; conditions: for observed activity in % destruction: pre-emergence
From the text: as §1, §2, §3, §4, §5

[9] = test system: ALOMY (Alopecurus myosuroides); assay: post-emergence greenhouse test; conditions: 3.75 g ai/ha
From the text: (§6) For the post-emergence treatment, the test plants were first grown to a height of 3 to 20 cm, depending on the plant habit, and only then treated. Here, the herbicidal compositions were suspended or emulsified in water as distribution medium and sprayed using finely distributing nozzles.
as §2, §3, §4, §5

[10] = test system: CHEAL (Chenopodium album); assay: post-emergence greenhouse test; conditions: 15 g ai/ha
From the text: as §6, §2, §3, §4, §5

[11] = test system: MERAN (Mercurialis annua); assay: post-emergence greenhouse test; conditions: 7.5 g ai/ha
From the text: as §6, §2, §3, §4, §5

**Q.** Which results are given for `Cc1cnc(C2=NC(=O)C(C)(C(C)C)N2)c(C(=O)O)c1` (stereo not drawn) [imazapic]?
**A.** observed activity in % destruction ([1]; 8 DAT): 20%; observed activity in % destruction ([1]; 20 DAT): 75%; observed % destruction 20 DAT ([2]; ALOMY pre-emergence 15 g ai/ha): 80%; observed activity in % destruction ([2]; 8 DAT): 40%; observed activity in % destruction ([2]; 20 DAT): 80%; observed activity in % destruction ([3]; 3.75 g ai/ha, 8 DAT): 30%; observed activity in % destruction ([3]; 3.75 g ai/ha, 20 DAT): 55%; observed activity in % destruction ([3]; 7.5 g ai/ha, 8 DAT): 50%; observed activity in % destruction ([3]; 7.5 g ai/ha, 20 DAT): 75%; observed activity in % destruction ([3]; 15 g ai/ha, 8 DAT): 50%; observed activity in % destruction ([3]; 15 g ai/ha, 20 DAT): 90%; observed % destruction 20 DAT ([4]; BRAPL pre-emergence 15 g ai/ha): 85%; observed activity in % destruction ([4]; 8 DAT): 30%; observed activity in % destruction ([4]; 20 DAT): 85%; observed % destruction 20 DAT ([5]; COMBE pre-emergence 3.75 g ai/ha): 30%; observed % destruction 20 DAT ([5]; COMBE pre-emergence 7.5 g ai/ha): 40%; observed activity in % destruction ([5]; 3.75 g ai/ha, 8 DAT): 0%; observed activity in % destruction ([5]; 3.75 g ai/ha, 20 DAT): 30%; observed activity in % destruction ([5]; 7.5 g ai/ha, 8 DAT): 20%; observed activity in % destruction ([5]; 7.5 g ai/ha, 20 DAT): 40%; observed % destruction 20 DAT ([6]; ECHCG pre-emergence 7.5 g ai/ha): 60%; observed % destruction 20 DAT ([6]; ECHCG pre-emergence 15 g ai/ha): 90%; observed activity in % destruction ([6]; 7.5 g ai/ha, 8 DAT): 30%; observed activity in % destruction ([6]; 7.5 g ai/ha, 20 DAT): 60%; observed activity in % destruction ([6]; 15 g ai/ha, 8 DAT): 65%; observed activity in % destruction ([6]; 15 g ai/ha, 20 DAT): 90%; observed % destruction 20 DAT (ERBVI): 65%; observed % destruction 20 DAT ([7]; LOLMU pre-emergence 3.75 g ai/ha): 40%; observed % destruction 20 DAT ([7]; LOLMU pre-emergence 7.5 g ai/ha): 45%; observed % destruction 20 DAT ([7]; LOLMU pre-emergence 15 g ai/ha): 65%; observed activity in % destruction ([7]; 3.75 g ai/ha, 8 DAT): 0%; observed activity in % destruction ([7]; 3.75 g ai/ha, 20 DAT): 40%; observed activity in % destruction ([7]; 7.5 g ai/ha, 8 DAT): 0%; observed activity in % destruction ([7]; 7.5 g ai/ha, 20 DAT): 45%; observed activity in % destruction ([7]; 15 g ai/ha, 8 DAT): 30%; observed activity in % destruction ([7]; 15 g ai/ha, 20 DAT): 65%; observed activity in % destruction ([8]; 3.75 g ai/ha, 8 DAT): 0%; observed activity in % destruction ([8]; 3.75 g ai/ha, 20 DAT): 80%; observed activity in % destruction ([8]; 7.5 g ai/ha, 8 DAT): 30%; observed activity in % destruction ([8]; 7.5 g ai/ha, 20 DAT): 90%; observed activity in % destruction ([8]; 15 g ai/ha, 8 DAT): 50%; observed activity in % destruction ([8]; 15 g ai/ha, 20 DAT): 95%; observed % destruction 20 DAT (PHBPU (Ipomoea purpurea); PHBPU pre-emergence 3.75 g ai/ha): 25%; observed activity in % destruction (PHBPU (Ipomoea purpurea); 8 DAT): 30%; observed activity in % destruction (PHBPU (Ipomoea purpurea); 20 DAT): 25%; observed % destruction 20 DAT (SETVI (Setaria viridis); SETVI pre-emergence 3.75 g ai/ha): 75%; observed % destruction 20 DAT (SETVI (Setaria viridis); SETVI pre-emergence 7.5 g ai/ha): 90%; observed % destruction 20 DAT (SETVI (Setaria viridis); SETVI pre-emergence 15 g ai/ha): 95%; observed % destruction 20 DAT (SOLNI (Solanum nigrum); SOLNI pre-emergence 3.75 g ai/ha): 70%; observed % destruction 20 DAT (SOLNI (Solanum nigrum); SOLNI pre-emergence 7.5 g ai/ha): 85%; observed % destruction 20 DAT (SOLNI (Solanum nigrum); SOLNI pre-emergence 15 g ai/ha): 90%; observed activity in % destruction (SOLNI (Solanum nigrum); 3.75 g ai/ha, 8 DAT): 20%; observed activity in % destruction (SOLNI (Solanum nigrum); 3.75 g ai/ha, 20 DAT): 70%; observed activity in % destruction (SOLNI (Solanum nigrum); 7.5 g ai/ha, 8 DAT): 40%; observed activity in % destruction (SOLNI (Solanum nigrum); 7.5 g ai/ha, 20 DAT): 85%; observed activity in % destruction (SOLNI (Solanum nigrum); 15 g ai/ha, 8 DAT): 50%; observed activity in % destruction (SOLNI (Solanum nigrum); 15 g ai/ha, 20 DAT): 90%; observed activity in % destruction ([9]; 8 DAT): 35%; observed activity in % destruction ([9]; 20 DAT): 30%; observed activity in % destruction ([10]; 8 DAT): 20%; observed activity in % destruction ([10]; 20 DAT): 30%; observed activity in % destruction ([11]; 8 DAT): 20%; observed activity in % destruction ([11]; 20 DAT): 0%
